# In paper PMC9023544, “Ketone-selenoesters as potential anticancer and multidrug resistance modulation agents in 2D and 3D ovarian and breast cancer in vitro models” (Scientific Reports, 2022):
# Where a name gives a salt, the structure may show the parent alone. Read-outs that look alike come from different tables or passages of the source.
# Columns and labels:
# HOC/ADR = assay: Sensitization of MDR cell line to Adriamycin; format: cell-based, human; conditions: for Fold change: IC50 of Adriamycin / IC50 of Adriamycin with IC10 dose of compound; for increase of the IC50 of Adriamycin: IC10 dose of compound
# Protocol: To determine the sensitization potential of compounds, HOC/ADR and MCF-7/PAX were used. Based on the cytotoxic potential of the compounds against several cancer and non-cancerous cell lines (Table 1), the concentrations of applied compounds were adjusted. IC10 values was considered as the concentrations, which should not decrease the cell viability under 90%. After the addition of compounds, Adriamycin (concentration range 0.1–20 µM) and paclitaxel (concentration range 0.1–10 µM) were added to HOC/ADR and MCF-7/PAX, respectively. The sensitization potential of the compounds was determined as the ratio of the IC50 of cytostatic agent (Adriamycin/paclitaxel) to the IC50 of cytostatic agent affected by the compound in concentration corresponding to the IC10 value. Fold change greater than 1 indicated synergic effect of cytostatic agent and the tested compound.
# After that, the plates were washed 1× with PBS and fresh DMEM medium supplemented with tested compounds at final concentration corresponding their IC10 value was added, except for positive control wells. Subsequently, Adriamycin (concentration range 0.1–20 µM) or paclitaxel (concentration range 0.1–10 µM) was added to the appropriate cell line for 72 h. After incubation, the cells were washed 1× with PBS and the resazurin solution (0.03 mg/mL) was added to evaluate the cell viability as described above. IC50 values of cytostatics were calculated for both the control and compounds; a fold change was counted up. When this fold change is higher than 1 indicates a synergism between the tested cytostatic agent and the compound, while a fold change lower than 1 means an antagonism. Fold change=IC50value of cytostatic treated cells only/IC50value of cytostatic treated cells in addition of the compound
# [1] = tested on: HOC/ADR (sub-line resistant to Adriamycin, A2780/ADR); assay: Cytotoxic activity, 2D, resazurin, 72 h; format: cell-based, human; conditions: for IC50 / IC10: Homo sapiens, A2780 ADR, 72 h; for IC50: 2D, mean ± SEM, n=3, read-out: HOC/ADR IC50; for IC10: HOC/ADR, concentration that should not decrease viability under 90%, read-out: IC10 of compounds; for SI HEK293/HOC/ADR: IC50 HEK293 / IC50 HOC/ADR; for CS (collateral sensitivity index): IC50 HOC / IC50 HOC/ADR
# Protocol: (§1) The cytotoxic potential of selenoesters was tested on several cancer cell lines—HOC (human parental ovarian adenocarcinoma, HOC, A2780, Sigma-Aldrich), HOC/ADR (sub-line resistant to Adriamycin, A2780/ADR, Sigma-Aldrich), MCF-7 (human breast adenocarcinoma, ATCC®, HTB-22TM), MCF-7/PAX (resistant sub-line established by gradual adaptation of parental cells to increased concentration of paclitaxel; kindly provided by Division of Cell and Molecular Biology, Third Faculty of Medicine, Charles University, Czech Republic) and on one non-cancerous cell line—HEK293 (human embryonic kidney cell line, Leibniz Institute, DSMZ-German Collection of Microorganisms and Cell Cultures GmbH). All mentioned cell lines were authenticated using short tandem repeat (STR) profiling. Cell lines were cultivated in DMEM medium (10% FBS, 1× antibiotic antimycotic solution), except for HEK293 cell line which was cultivated without antibiotics. In case of the resistant cell lines, the medium was supplemented with a required concentration of cytostatics to maintain resistance (HOC/ADR—100 nM Adriamycin; MCF-7/PAX—300 nM paclitaxel). All cells were cultivated in a CO2 incubator (5% CO2, 37 °C, Thermo Fisher Scientific).
# (§2) For the experiment, the cells at passage number 5–20 were seeded at a 1 × 10^5 cells/mL concentration into 96-well plates to 100 µL final volume. The final concentration range of the compounds was 0.63–20 µM. After an incubation of 72 h, the plates were washed 1× with PBS and resazurin solution (0.03 mg/mL in 1× PBS) was added. After 1 h of incubation, the fluorescence signal was recorded (ex./em. 560/590 nm).
# (§3) The selectivity index (SI) was determined as the ratio of IC50 value for the non-cancerous cells to IC50 for the cancer cell line. For resistant cell lines, the collateral sensitivity (CS) was calculated as the ratio of IC50 value in sensitive tumour cells to IC50 in the resistant cancer cell line. In both cases, the selectivity is considered as: (1) strongly selective when SI or CS value is above 6, (2) moderately selective when SI or CS is between 3 and 6, (3) slightly selective when SI or CS is between 1 and 3 and (4) non-selective when SI or CS is less than 1[23].
# [2] = tested on: HOC (human parental ovarian adenocarcinoma, A2780); assay: Cytotoxic activity, 2D, resazurin, 72 h; format: cell-based; conditions: for IC50: 2D, 72 h, mean ± SEM, n=3, read-out: HOC IC50; for SI HEK293/HOC: IC50 HEK293 / IC50 HOC
# Protocol: as §1, §2, §3
# [3] = tested on: MCF-7/PAX (paclitaxel-resistant sub-line); assay: Cytotoxic activity, 2D, resazurin, 72 h; format: cell-based, human; conditions: for IC50: Homo sapiens, MCF7, 2D, 72 h, mean ± SEM, n=3, read-out: MCF-7/PAX IC50; for SI HEK293/MC7-7/PAX: IC50 HEK293 / IC50 MCF-7/PAX; for CS (collateral sensitivity index): IC50 MCF-7 / IC50 MCF-7/PAX
# Protocol: as §1, §2, §3
# [4] = tested on: HEK293 (human embryonic kidney cell line); assay: Cytotoxic activity, non-cancerous cell line, resazurin, 72 h; format: cell-based; conditions: Homo sapiens, HEK293; 72 h, mean ± SEM, n=3
# Protocol: as §1, §2, §3
# [5] = tested on: MCF-7 (human breast adenocarcinoma); assay: Cytotoxic activity, 2D, resazurin, 72 h; format: cell-based; conditions: for IC50: Homo sapiens, MCF7, 2D, 72 h, mean ± SEM, n=3, read-out: MCF-7 IC50; for SI HEK293/MCF-7: IC50 HEK293 / IC50 MCF-7
# Protocol: as §1, §2, §3
compound,measurement,setting,value
"COc1cccc2c1C(=O)c1c(O)c3c(c(O)c1C2=O)C[C@@](O)(C(=O)CO)C[C@@H]3O[C@H]1C[C@H](N)[C@H](O)[C@H](C)O1 [ADR, doxorubicin hydrochloride, reference compound]",IC50,"HOC/ADR; Homo sapiens, Adriamycin 0.1–20 µM with IC10 dose of compound, 72 h, ADR row = Adriamycin alone",2500 nM
same,IC50,[1],2500 nM
same,IC50,"[2]; Homo sapiens, A2780, 72 h",10 nM
CC(=O)C[Se]C(=O)c1cccs1 [K1],Fold change,HOC/ADR,(1.3 ± 0.1)×
same,IC10,[1],1500 nM
same,IC50,[1],2300 nM
same,SI HEK293/HOC/ADR,[1],0.4 ± 0.0
same,CS (collateral sensitivity index),[1],0.4 ± 0.0
same,IC50,[3],2200 ± 200 nM
same,SI HEK293/MC7-7/PAX,[3],0.4 ± 0.0
same,CS (collateral sensitivity index),[3],0.7 ± 0.1
same,IC50,[4],1000 ± 100 nM
same,IC50,[2],800 nM
same,IC50,"[2]; Homo sapiens, A2780, 72 h",< 1000 nM
same,SI HEK293/HOC,[2],1.2 ± 0.1
same,IC50,[5],1600 ± 100 nM
same,SI HEK293/MCF-7,[5],0.6 ± 0.1
CC(=O)C[Se]C(=O)c1ccccc1F [K2],Fold change,HOC/ADR,(1.2 ± 0.0)×
same,IC10,[1],1000 nM
same,IC50,[1],2400 ± 100 nM
same,SI HEK293/HOC/ADR,[1],0.5 ± 0.0
same,CS (collateral sensitivity index),[1],0.3 ± 0.0
same,IC50,[3],1900 ± 100 nM
same,SI HEK293/MC7-7/PAX,[3],0.6 ± 0.1
same,CS (collateral sensitivity index),[3],1.0 ± 0.1
same,IC50,[4],1200 ± 100 nM
same,IC50,[2],800 ± 100 nM
same,IC50,"[2]; Homo sapiens, A2780, 72 h",< 1000 nM
same,SI HEK293/HOC,[2],1.6 ± 0.1
same,IC50,[5],1900 ± 100 nM
same,SI HEK293/MCF-7,[5],0.7 ± 0.1
CC(=O)C[Se]C(=O)c1cccc(C(F)(F)F)c1 [K5],increase of the IC50 of Adriamycin,HOC/ADR,almost twofold
same,Fold change,HOC/ADR,(0.5 ± 0.1)×
same,IC10,[1],1500 nM
same,IC50,[1],2200 ± 300 nM
same,SI HEK293/HOC/ADR,[1],0.7 ± 0.1
same,CS (collateral sensitivity index),[1],0.5 ± 0.1
same,IC50,[3],2800 ± 100 nM
same,SI HEK293/MC7-7/PAX,[3],0.6 ± 0.0
same,CS (collateral sensitivity index),[3],0.6 ± 0.1
same,IC50,[4],1600 nM
same,IC50,"[2]; Homo sapiens, A2780, 72 h",1100 nM
same,SI HEK293/HOC,[2],1.5 ± 0.0
same,IC50,[5],1600 ± 100 nM
same,SI HEK293/MCF-7,[5],1.0 ± 0.1
CC(=O)C[Se]C(=O)c1ccc(F)c(Cl)c1 [K6],Fold change,HOC/ADR,(1.1 ± 0.1)×
same,IC10,[1],1300 nM
same,IC50,[1],2600 ± 100 nM
same,SI HEK293/HOC/ADR,[1],0.8 ± 0.1
same,CS (collateral sensitivity index),[1],0.3 ± 0.0
same,IC50,[3],2300 ± 300 nM
same,SI HEK293/MC7-7/PAX,[3],0.9 ± 0.1
same,CS (collateral sensitivity index),[3],0.9 ± 0.1
same,IC50,[4],2000 ± 100 nM
same,IC50,[2],700 ± 100 nM
same,IC50,"[2]; Homo sapiens, A2780, 72 h",< 1000 nM
same,SI HEK293/HOC,[2],2.7 ± 0.4
same,IC50,[5],2100 ± 200 nM
same,SI HEK293/MCF-7,[5],0.9 ± 0.2
CC(=O)C[Se]C(=O)c1cc(F)c(F)cc1F [K8],Fold change,HOC/ADR,(1.1 ± 0.1)×
same,IC10,[1],3000 nM
same,IC50,[1],2700 nM
same,SI HEK293/HOC/ADR,[1],0.7 ± 0.0
same,CS (collateral sensitivity index),[1],0.8 ± 0.1
same,collateral sensitivity against paclitaxel-resistant breast carcinoma (in words),[3],slight collateral sensitivity
same,IC50,[3],2000 ± 100 nM
same,SI HEK293/MC7-7/PAX,[3],1.0 ± 0.2
same,CS (collateral sensitivity index),[3],1.3 ± 0.3
same,IC50,[4],2000 ± 200 nM
same,IC50,"[2]; Homo sapiens, A2780, 72 h",2100 ± 100 nM
same,SI HEK293/HOC,[2],0.9 ± 0.1
same,IC50,[5],2600 ± 400 nM
same,SI HEK293/MCF-7,[5],0.8 ± 0.1
N#CC[Se]C(=O)c1cccs1 [N1],increase of the IC50 of Adriamycin,HOC/ADR,3.5 fold
same,Fold change,HOC/ADR,(0.3 ± 0.1)×
same,IC10,[1],2500 nM
same,IC50,[1],4200 ± 200 nM
same,SI HEK293/HOC/ADR,[1],1.4 ± 0.2
same,CS (collateral sensitivity index),[1],0.7 ± 0.1
same,collateral sensitivity against paclitaxel-resistant breast carcinoma (in words),[3],slight collateral sensitivity
same,IC50,[3],2500 nM
same,SI HEK293/MC7-7/PAX,[3],2.4 ± 0.4
same,CS (collateral sensitivity index),[3],1.2 ± 0.2
same,IC50,[4],6000 ± 600 nM
same,IC50,"[2]; Homo sapiens, A2780, 72 h",2700 ± 300 nM
same,SI HEK293/HOC,[2],2.2 ± 0.4
same,IC50,[5],3100 ± 200 nM
same,SI HEK293/MCF-7,[5],2.0 ± 0.3
N#CC[Se]C(=O)c1cccc(F)c1 [N2],Fold change,HOC/ADR,(1.2 ± 0.1)×
same,collateral sensitivity against HOC/ADR (in words),[1],slight collateral sensitivity
same,IC10,[1],3000 nM
same,IC50,[1],4700 ± 100 nM
same,SI HEK293/HOC/ADR,[1],1.7 ± 0.1
same,CS (collateral sensitivity index),[1],1.5 ± 0.1
same,IC50,[3],2500 ± 300 nM
same,SI HEK293/MC7-7/PAX,[3],3.1 ± 0.2
same,CS (collateral sensitivity index),[3],1.0 ± 0.1
same,IC50,[4],7800 ± 200 nM
same,IC50,"[2]; Homo sapiens, A2780, 72 h",7100 ± 200 nM
same,SI HEK293/HOC,[2],1.1 ± 0.1
same,IC50,[5],2600 ± 100 nM
same,SI HEK293/MCF-7,[5],3.0 ± 0.2
N#CC[Se]C(=O)c1ccc(Br)cc1 [N3],Fold change,HOC/ADR,(1.3 ± 0.0)×
same,collateral sensitivity against HOC/ADR (in words),[1],slight collateral sensitivity
same,IC10,[1],3100 nM
same,IC50,[1],5200 ± 100 nM
same,SI HEK293/HOC/ADR,[1],1.5 ± 0.1
same,CS (collateral sensitivity index),[1],1.3 ± 0.1
same,IC50,[3],2700 ± 200 nM
same,SI HEK293/MC7-7/PAX,[3],3.0 ± 0.6
same,CS (collateral sensitivity index),[3],0.9 ± 0.3
same,IC50,[4],8000 ± 300 nM
same,IC50,"[2]; Homo sapiens, A2780, 72 h",6500 ± 300 nM
same,SI HEK293/HOC,[2],1.2 ± 0.1
same,IC50,[5],2300 ± 500 nM
same,SI HEK293/MCF-7,[5],3.5 ± 0.9
"CC(=O)O[C@H]1C(=O)[C@@]2(C)[C@H]([C@H](OC(=O)c3ccccc3)[C@]3(O)C[C@H](OC(=O)[C@H](O)[C@@H](NC(=O)c4ccccc4)c4ccccc4)C(C)=C1C3(C)C)[C@]1(OC(C)=O)CO[C@@H]1C[C@@H]2O [PAX, paclitaxel, reference compound]",IC50,[3],1500 nM
same,IC50,[5],30 nM
